# Measured values as given in patent publication US20040076974A1, “Liver necrosis predictive genes” (priority 2002, published 2004).
# Where “and” joins values, the source holds several entries; their conditions need not be identical. Equal entries are not always repeated.
# System: toxicologically relevant rat genes (rat CT array)
# [1] = 24 h, dose 80, ratio treatment/control, listed as PBARB
smiles,measurement,setting,value
CCC1(c2ccccc2)C(=O)NC(=O)NC1=O [phenobarbital],"17-beta hydroxysteroid dehydrogenase, type 2",[1],0.7562 and 0.7908 and 0.9571
same,60S ribosomal protein L6,[1],1.307 and 1.425
same,ATPase inhibitor (rat mitochondrial IF1 protein),[1],0.6848 and 0.7077 and 0.6801
same,"Aldehyde dehydrogenase, microsomal",[1],1.087 and 1.048
same,Alpha 1 - inhibitor III,[1],0.5856 and 0.4905 and 0.5622
same,Alpha-2-macroglobulin,[1],0.9113 and 0.8593 and 0.9766
same,Bax (alpha),[1],1.058 and 1.091 and 1.122
same,Beta-actin,[1],1.224 and 1.246 and 1.145
same,Calpactin I heavy chain,[1],1.134 and 1.063
same,Carbamyl phosphate synthetase I,[1],0.8575 and 0.7797 and 0.7692
same,Carbonyl reductase,[1],1.059 and 1.125 and 0.962
same,"Cathepsin L, sequence 2",[1],1.574 and 1.633
same,Cofilin,[1],0.9114 and 0.8537 and 0.8627
same,Cyclin G,[1],1.002 and 1.066 and 1.079
same,DNA polymerase beta,[1],1.046 and 1.107
same,Dynamin-1 (D100),[1],0.9128 and 0.9717 and 0.9326
same,"Endogenous retroviral sequence, 5′ and 3′ LTR",[1],1.21 and 0.7011 and 0.7797
same,Enolase alpha,[1],1.121 and 1.118 and 1.149
same,Epidermal growth factor,[1],1.003 and 1.092 and 1.144
same,Equilbrative nitrobenzylthioinosine-sensitive nucleoside transporter,[1],0.9518 and 0.8269 and 0.9012
same,Extracellular-signal-regulated kinase 1,[1],1.5 and 1.071 and 0.8668
same,Fas antigen,[1],1.331 and 1.404 and 1.329
same,Gadd45,[1],1.044 and 0.9552 and 1.022
same,Gadd153,[1],1.008 and 0.989 and 0.9738
same,"Gamma-actin, cytoplasmic",[1],1.252 and 1.167 and 1.207
same,Glucose-regulated protein 78,[1],1.679 and 1.668 and 1.487
same,Heme oxygenase,[1],0.7677 and 0.7554 and 0.8649
same,Hepatic lipase,[1],0.7302 and 1.208 and 0.6736
same,ID-1,[1],1.015 (2×) and 0.9098
same,IgE binding protein,[1],0.9374 and 0.898
same,IkB-a,[1],1.024 and 1.103 and 1.096
same,Insulin-like growth factor I,[1],0.6186 and 0.52 and 0.7677
same,Insulin-like growth factor binding protein 1,[1],1.514 and 1.628
same,Insulin-like growth factor binding protein 3,[1],0.6158 and 0.8747
same,Integrin beta1,[1],1.29 and 1.37 and 1.335
same,L-gulono-gamma-lactone oxidase,[1],0.6365 and 0.6402 and 0.7055
same,Liver fatty acid binding protein,[1],0.8038 and 0.7393 and 0.8984
same,MAP kinase kinase,[1],1.002 and 1.108
same,Macrophage inflammatory protein-2 alpha,[1],1.093 and 1.12 and 1.177
same,Matrin F/G,[1],0.9519 and 0.9552 and 1.004
same,Matrix metalloproteinase-1,[1],1.245 and 1.194 and 1.355
same,Melanoma-associated antigen ME491,[1],1.089 and 0.9854 and 1.045
same,Monocyte chemotactic protein receptor (CCR2),[1],1.034 and 1.086 and 1.071
same,Multidrug resistant protein-2,[1],1.301 and 1.556 and 1.405
same,N-hydroxy-2-acetylaminofluorene sulfotransferase (ST1C1),[1],0.7492 and 0.7954 and 0.8182
same,Nucleoside diphosphate kinase beta isoform,[1],1.36 and 1.288 and 1.362
same,Organic anion transporter 3,[1],1.251 and 1.195 and 1.053
same,Organic cation transporter 3,[1],1.211 and 1.277 and 1.36
same,Ornithine decarboxylase,[1],1.262 and 1.294 and 1.161
same,PAR interacting protein,[1],1.196 and 1.432 and 1.205
same,Phase-1 RCT 252,[1],0.772 and 0.7405
same,Phase-1 RCT-15,[1],1
same,Phase-1 RCT-33,[1],1.288
same,Phase-1 RCT-37,[1],1.101
same,Phase-1 RCT-39,[1],1.631 and 1.876 and 2.263
same,Phase-1 RCT-40,[1],0.9657 and 1.099
same,Phase-1 RCT-48,[1],0.6407
same,Phase-1 RCT-72,[1],0.9031 and 0.8598
same,Phase-1 RCT-83,[1],0.7773
same,Phase-1 RCT-88,[1],0.8891
same,Phase-1 RCT-89,[1],0.9166
same,Phase-1 RCT-102,[1],0.7133 and 0.4783 and 0.5208
same,Phase-1 RCT-123,[1],0.9384 and 1.104
same,Phase-1 RCT-137,[1],0.8817
same,Phase-1 RCT-154,[1],1.303
same,Phase-1 RCT-180,[1],1.296
same,Phase-1 RCT-181,[1],0.9889
same,Phase-1 RCT-182,[1],0.9123
same,Phase-1 RCT-189,[1],0.8764 and 0.754 and 0.6881
same,Phase-1 RCT-191,[1],1.599
same,Phase-1 RCT-214,[1],0.9342 and 1.408
same,Phase-1 RCT-239,[1],0.5982 and 0.595
same,Phase-1 RCT-241,[1],1.293
same,Phase-1 RCT-242,[1],0.9855 and 0.8679 and 0.8934
same,Phase-1 RCT-256,[1],0.8602
same,Phase-1 RCT-264,[1],0.5789 and 0.5647 and 0.5936
same,Phase-1 RCT-270,[1],0.9344 and 0.9311
same,Phase-1 RCT-271,[1],1.204 and 1.753
same,Phase-1 RCT-291,[1],1.285
same,Phase-1 RCT-296,[1],0.8165
same,Proliferating cell nuclear antigen gene,[1],1.007 and 0.9415 and 1.108
same,Ribosomal protein L13A,[1],1.209 and 1.299
same,Ribosomal protein S8,[1],1.309 and 1.3 and 1.45
same,Ribosomal protein S17,[1],1.52
same,Senescence marker protein-30,[1],0.4601 and 0.4705 and 0.6829
same,Sodium/bile acid cotransporter,[1],2.871 and 2.806 and 2.757
same,Superoxide dismutase Mn,[1],1.266 and 1.52 and 1.416
same,Thymosin beta-10,[1],0.9766 and 1.212
same,Transthyretin,[1],0.5528 and 0.5255 and 0.5896
same,Ubiquitin conjugating enzyme (RAD 6 homologue),[1],1.202 and 1.253 and 1.239
same,Uncoupling protein 2,[1],1.015 and 0.8977 and 1.15
same,Zinc finger protein,[1],0.9857 and 1.001 and 0.984
same,c-jun,[1],0.6641 and 0.6214 and 0.6871
same,c-myc,[1],1.056 and 0.76 and 0.7591
same,p53,[1],1.049 and 1.111 and 0.9729
same,{Ribosomal protein L6},[1],1.301
same,Paraoxonase 1,"rat, in vivo",0.7914 and 0.865 and 0.7219 and 0.8315 and 0.967
